Tests used:
PTH release = assay: In vivo pharmacodynamic effects: PTH (Rat Intact PTH 1-84 ELISA); details: oral gavage
Method: (§1) Procedures for In Vivo Pharmacodynamic Effects
(§2) The objective of these studies was to assess the effect of compounds on stimulating PTH release and increasing calcium secretion in the rat. Male Sprague-Dawley rats (3-4 months old) were equipped with jugular vein cannulae (JVC) by surgical procedure. The rats were given the compound by oral gavage. Blood was sampled from the JVC at 15 minutes, 30 minutes, 60 minutes, 120 minutes, 240 minutes, 420 minutes, and 24 hrs post compound administration. Plasma was separated and used for a PTH ELISA assay and a calcium concentration assay. After the last blood sampling, the rats were sacrificed under anesthesia by inhalation of CO2. All procedures were conducted in compliance with the Animal Welfare Act, the Guide for the Care and Use of Laboratory Animals and the recommendations of the AVMA Panel on Euthanasia.
(§3) Rat plasma samples were used for measuring serum PTH levels: The Rat Intact PTH 1-84 ELISA kit (Immutopics Cat#60-2500) was used according to the manufacturer's instructions. Total serum calcium determination was made using a calcium arsenazo III reagent (Fisher Scientific Cat # Pointe Scientific Calcium (Arsenazo III) Reagents; Mfr. No.: C7529-500; Qty.: 500 mL. Mfr. No.: C7529-500, Part #23666172) according to the manufacturer's instructions. For these experiments, 2 μl of sample was added to 198 μl of reagent, mixed, and read at 650 nm.

serum calcium = assay: In vivo pharmacodynamic effects: total serum calcium (arsenazo III); details: rat, oral gavage
Method: as §1, §2, §3

human CaSR = biological target: T1, human CaSR (Homo sapiens, UniProt P41180); assay: CaSR binding assay (radioligand, HEK293 membranes); set-up: expressed in transfected cells; host or cells: HEK293 cell membranes; details: for Ki: membranes of HEK293 cells expressing human CaSR, radio-labeled EXAMPLE 25; for IC50: read-out: IC50s (high affinity for the human calcium sensing receptor and potent antagonist activity)
T1 sequence (P41180 20-1078): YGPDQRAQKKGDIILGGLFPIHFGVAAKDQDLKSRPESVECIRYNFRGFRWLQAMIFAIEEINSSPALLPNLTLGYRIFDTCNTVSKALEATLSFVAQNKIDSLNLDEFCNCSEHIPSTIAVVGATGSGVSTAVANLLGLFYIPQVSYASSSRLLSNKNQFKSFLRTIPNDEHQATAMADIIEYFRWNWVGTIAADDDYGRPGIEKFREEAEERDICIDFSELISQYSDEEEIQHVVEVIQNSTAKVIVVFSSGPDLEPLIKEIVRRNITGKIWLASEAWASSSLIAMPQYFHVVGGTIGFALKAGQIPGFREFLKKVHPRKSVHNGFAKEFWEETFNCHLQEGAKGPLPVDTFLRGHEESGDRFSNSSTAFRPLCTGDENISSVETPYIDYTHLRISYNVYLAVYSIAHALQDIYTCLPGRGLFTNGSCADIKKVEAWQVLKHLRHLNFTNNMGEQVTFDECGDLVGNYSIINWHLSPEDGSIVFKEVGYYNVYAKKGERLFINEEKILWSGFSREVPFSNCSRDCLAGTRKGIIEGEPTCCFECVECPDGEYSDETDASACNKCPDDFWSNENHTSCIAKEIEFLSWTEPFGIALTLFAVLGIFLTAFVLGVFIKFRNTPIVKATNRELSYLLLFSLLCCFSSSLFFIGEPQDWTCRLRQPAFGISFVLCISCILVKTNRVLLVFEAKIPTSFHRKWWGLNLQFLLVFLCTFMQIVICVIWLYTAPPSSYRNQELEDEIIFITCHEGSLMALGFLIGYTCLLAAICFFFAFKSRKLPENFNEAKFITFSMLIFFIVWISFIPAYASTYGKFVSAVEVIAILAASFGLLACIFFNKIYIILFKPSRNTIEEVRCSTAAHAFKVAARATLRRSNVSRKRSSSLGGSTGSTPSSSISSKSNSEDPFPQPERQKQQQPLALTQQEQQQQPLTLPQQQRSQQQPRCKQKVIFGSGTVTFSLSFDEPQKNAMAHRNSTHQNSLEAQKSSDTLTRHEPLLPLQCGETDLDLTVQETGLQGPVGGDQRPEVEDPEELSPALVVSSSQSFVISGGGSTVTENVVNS
Method: Procedures for CaSR Binding Assay
Membrane preparations from HEK293 cells expressing the human CaSR were generated. The cells were cultured and then washed twice with 1×PBS. The cells were dissociated by adding 4 ml pre-warmed 0.25% Trypsin-EDTA, and by incubating the flask at RT for 3 minutes. 10 ml media was dispensed over the cell layer surface, and the cells were harvested into a centrifuge tube. The cells were centrifuged at 200×g for 10 minutes. The cell pellet was suspended in 30 ml of membrane preparation buffer and then homogenized on ice twice at 16000 rpm for 10 seconds. Following homogenization, the membrane was collected by centrifuge at 40000×g for 30 minutes at 4° C., washed twice with 30 ml membrane preparation buffer, and centrifuged again at 40000×g for 10 minutes. The membrane pellet was suspended in 30 ml membrane preparation buffer (50 mM Tris, pH7.0, 10 mM MgCl, Proteinase inhibitor (Roche, REF 04693116001), and then homogenized on ice once at 16000 rpm for 10 seconds. The total protein concentration was measured using a BCA kit. The membrane protein concentration was adjusted to 2.4 mg/ml and then diluted with binding buffer (10 mM HEPES, pH7.4, 130 mM NaCl, 0.4 mM CaCl2, 5 mM MgCl2, 1 mM EGTA, 10 mM glucose, 0.1% BSA) to 0.33 μg/μl. The final amount in the binding assay was 20 μg/well. Test compound was serially diluted manually by using BIOHIT multi-channel pipettor in 100% DMSO (10 point, 3-fold dilution of each compound from 5.0 μM in 100% DMSO). 4 μl of serially diluted compound was manually transferred into a second assay microplate that contained 196 μl of binding assay buffer to create the intermediate dilution plate. For background, 20 μl of assay buffer was added to each control well. […] The binding reaction used a 100 μl reaction volume consisting of 10 μl of test compound, 30 μl of diluted radio-labelled compound, and 60 μl of membrane solution (0.33 μg/μl). The reaction mixture was incubated at room temperature for one hour. The Grade GF/C filter plates were presoaked in 0.3% PEI (protect from light) for 60 minutes at room temperature. The plate was then washed three times with ice-cold wash buffer (25 mM Tris-HCl, PH7.4, 130 mM NaCl, 5 mM MgCl2, 0.4 mM CaCl2, 0.1% BSA) prior to filtration of the binding samples. The binding reaction was terminated by rapid filtration of 100 μl binding mixture through the GF/C plate. Plates were then washed 6 times with ice-cold wash buffer. Filter plates were dried with a hair dryer for 20 minutes. 60 μl/well MICROSCINT 20 (a cocktail for microplates) was added to the bottom of sealed filters, then the filters were sealed at the top with tape. Bound radioactivity was counted in a TOPCOUNT scintillation counter. Exemplary compounds bind in the 1-500 nM range.

Compound | Maximum Change in PTH (fold) (PTH release; at 30 mpk) | Maximum Increase in Calcium (mg/dl) (serum calcium; at 30 mpk) | Ki (human CaSR) | IC50 (human CaSR) | Maximum Change in PTH (fold) (PTH release; at 10 mpk) | Maximum Increase in Calcium (mg/dl) (serum calcium; at 10 mpk)
C[C@@H](OC[C@H](O)CNC(C)(C)Cc1ccc2ccccc2c1)c1cccc2c1O[C@@H]1[C@@H](C(=O)O)[C@H]21 [Example 1-1] | 5.8 (at fold | 1.5 (at mg/dl | 18 nM | 18 nM | – | –
C[C@@H](OC[C@H](O)CNC(C)(C)Cc1ccc2ccccc2c1)c1cccc2c1[C@@H]1[C@H](O2)[C@H]1C(=O)O [Example 5-1] | – | – | 7 nM | 7 nM | 8 (at fold | 2.3 (at mg/dl
CSc1ccc(CC(C)(C)NC[C@@H](O)CO[C@H](C)c2ccc(C)c3c2C2[C@H](O3)[C@H]2C(=O)O)cc1F (stereo partly drawn) [Example 8-24] | 4 (at fold | 1 (at mg/dl | 29 nM | 29 nM | – | –

Reference: patent publication US20160311791A1, “NOVEL TRICYCLIC CALCIUM SENSING RECEPTOR ANTOGONISTS FOR THE TREATMENT OF OSTEOPOSOSIS” (MERCK SHARP & DOHME CORP., priority 2013, published 2016)
